{"source": "patent US5807688A", "about": "(priority 1995, dated 1998)", "key": {"[1]": {"target": "monoclonal antibody 6D9, raised to phosphonate haptens (2.53) and (2.54)", "details": "cited from earlier work"}, "[2]": {"target": "carboxypeptidase G2 (CPG2) (Pseudomonas sp., UniProt P06621)", "sequence (P06621 23-415)": "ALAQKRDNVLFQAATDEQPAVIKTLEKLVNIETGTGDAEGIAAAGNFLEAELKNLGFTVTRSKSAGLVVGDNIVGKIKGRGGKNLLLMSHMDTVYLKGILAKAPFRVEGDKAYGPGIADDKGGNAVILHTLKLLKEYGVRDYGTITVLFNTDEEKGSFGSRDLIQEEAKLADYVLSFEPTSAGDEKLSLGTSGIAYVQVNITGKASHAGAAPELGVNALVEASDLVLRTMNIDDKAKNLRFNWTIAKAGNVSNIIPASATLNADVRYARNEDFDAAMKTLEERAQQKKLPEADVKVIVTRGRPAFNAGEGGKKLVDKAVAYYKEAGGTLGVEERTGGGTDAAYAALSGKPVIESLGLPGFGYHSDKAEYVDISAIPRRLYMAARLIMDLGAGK", "details": "cited from earlier work"}, "[3]": {"details": "mouse, in vivo, ip, 0.5 h; cited from earlier work"}, "[4]": {"tested_on": "JAR human choriocarcinoma cell line", "details": "cited from earlier work"}, "[5]": {"target": "catalytic monoclonal antibody DF8-D5 (IgG1), elicited to phosphonamidate ester hapten (7.2), hybridoma ECACC 96042612", "assay_type": "biochemical, mouse", "details": "for Km / kcat / kcat/Km / kcat/kun: pH 6.5"}, "[6]": {"target": "monoclonal antibody EA11-D7 (IgG1), Appendix line 32, elicited to TSA (7.2)", "assay_type": "binding, mouse"}, "[7]": {"tested_on": "monoclonal antibody DG10-8G7 (IgG1), Appendix line 4, elicited to TSA (7.4)", "assay_type": "binding, mouse", "details": "inhibition elisa; read-out: aK (ELISA)"}, "[8]": {"tested_on": "monoclonal antibody AC7-4A10 (IgG1), Appendix line 8, elicited to TSA (7.4)", "assay_type": "binding, mouse", "details": "inhibition elisa; read-out: aK (ELISA) (converted)"}, "[9]": {"tested_on": "monoclonal antibody AB9-16H6 (IgG1), Appendix line 3, elicited to TSA (7.4)", "assay_type": "binding, mouse", "details": "inhibition elisa; read-out: aK (ELISA) (converted)"}, "[10]": {"tested_on": "monoclonal antibody CC11-4B4 (IgG1), Appendix line 1, elicited to TSA (7.4)", "assay_type": "binding, mouse", "details": "inhibition elisa; read-out: aK (ELISA) (converted)"}, "[11]": {"target": "monoclonal antibody CF6 (IgG1), Appendix line 13, elicited to TSA (7.2)", "assay_type": "binding, mouse"}, "[12]": {"tested_on": "monoclonal antibody CF7 (IgG2a), Appendix line 14, elicited to TSA (7.2)", "assay_type": "binding, mouse"}, "[13]": {"tested_on": "monoclonal antibody 49.AG.659.12", "details": "cited from earlier work"}, "[14]": {"tested_on": "monoclonal antibody EA11-D7", "assay_type": "binding, mouse", "details": "read-out: I50"}, "[15]": {"tested_on": "antibody NPN43C9, elicited to phosphonamidate hapten (9.11)", "parameters": "kcat/Km: unit not given here", "details": "cited from earlier work; for Kd: read-out: Kd or Ki"}, "[16]": {"tested_on": "chorismate mutase (EC 5.4.99.5), E. coli enzyme", "details": "cited from earlier work"}}, "note": "Where “and” joins values, the source holds several entries; their conditions need not be identical. Identical values can stand only once.", "data": [{"smiles": "O=C(N[C@H](CO)[C@H](OP(=O)(O)Cc1ccc(NC(=O)C(F)(F)F)cc1)c1ccc([N+](=O)[O-])cc1)C(Cl)Cl", "note": "[2.54]", "values": [{"measurement": "Ki", "setting": "[1]", "value": 60, "unit": "nM"}]}, {"smiles": "O=C(Cc1ccc(NC(=O)C(F)(F)F)cc1)O[C@H](c1ccc([N+](=O)[O-])cc1)[C@@H](CO)NC(=O)C(Cl)Cl", "note": "[2.56]", "values": [{"measurement": "rate enhancement, kcat/kuncat", "setting": "[1]", "value": "1.8×10^3"}]}, {"smiles": "O=C(O)CC[C@H](NC(=O)c1ccc(N(CCCl)CCCl)cc1)C(=O)O", "note": "[3.4, para-[bis(2-chloroethyl)amino]benzoyl-Lglutamic acid]", "values": [{"measurement": "Km", "setting": "[2]", "value": 4.9, "unit": "µM"}, {"measurement": "mean concentration, Gut", "setting": "[3]", "value": 12.3}, {"measurement": "mean concentration, Kidney", "setting": "[3]", "value": 2.9}, {"measurement": "mean concentration, Liver", "setting": "[3]", "value": 22.0}, {"measurement": "mean concentration, Lung", "setting": "[3]", "value": 0.2}, {"measurement": "mean concentration, Tumour", "setting": "[3]", "value": "< 0.05"}]}, {"smiles": "CS(=O)(=O)OCCN(CCCl)c1ccc(C(=O)O)cc1", "note": "[3.16]", "values": [{"measurement": "IC50", "setting": "[4]", "value": "220 ± 10", "unit": "µM"}]}, {"smiles": "CCOP(=O)(Cc1ccc(NC(=O)CCCC(=O)O)cc1)Nc1cc(C(=O)O)cc(C(=O)O)c1", "note": "(stereo not drawn) [7.6, Ethyl N-[(3,5-dicarboxy)phenyl]-P-[N-(4'-carboxybutyroyl)-4-aminophenylmethyl]phosphonamidate]", "values": [{"measurement": "Ki", "setting": "[5]", "value": "25 nM and 40 nM"}, {"measurement": "Kd", "setting": "[6]", "value": "< 4", "unit": "nM"}]}, {"smiles": "O=C(O)CCCC(=O)Nc1ccc(CP(=O)(O)Nc2cc(C(=O)O)cc(C(=O)O)c2)cc1", "note": "[7.7, N-[(3,5-Dicarboxy)phenyl]-P-[N-(4'-carboxybutyroyl)-4-aminophenyl-methyl]phosphonamidic acid]", "values": [{"measurement": "IC50", "setting": "[7]", "value": 10, "unit": "nM"}, {"measurement": "IC50", "setting": "[8]", "value": 0.455, "unit": "nM"}, {"measurement": "IC50", "setting": "[9]", "value": 833, "unit": "nM"}, {"measurement": "IC50", "setting": "[10]", "value": 76.9, "unit": "nM"}]}, {"smiles": "CCOP(=O)(Cc1ccc(N)cc1)Nc1cc(C(=O)O)cc(C(=O)O)c1", "note": "(stereo not drawn) [7.37, Ethyl N-[(3,5-dicarboxy)phenyl]-P-(4-aminophenylmethyl)phosphonamidate]", "values": [{"measurement": "kd, mean", "setting": "[6]; biacore", "value": "2.54e-05", "unit": "s⁻¹"}, {"measurement": "Ka (BIAcore)", "setting": "[11]", "value": "2.19e+08", "unit": "M⁻¹"}, {"measurement": "ka", "setting": "[11]; biacore", "value": 56600, "unit": "M⁻¹ s⁻¹"}, {"measurement": "kd", "setting": "[11]; biacore", "value": 0.000258, "unit": "s⁻¹"}, {"measurement": "Ka (BIAcore)", "setting": "[12]", "value": "no binding"}]}, {"smiles": "O=C(Nc1cc(C(=O)O)cc(C(=O)O)c1)Oc1ccc(N(CCCl)CCCl)cc1", "note": "[9.2]", "values": [{"measurement": "cytotoxicity of the prodrug alone", "setting": "LoVo cells", "value": "significant amount of background cytotoxicity"}]}, {"smiles": "CC(C)[C@@H](N)C(=O)OC[C@H]1O[C@@H](n2cc(F)c(=O)[nH]c2=O)C[C@@H]1O", "note": "[9.4]", "values": [{"measurement": "Km", "setting": "[13]", "value": "215 µM and 218 µM"}, {"measurement": "kcat", "setting": "[13]", "value": 0.03, "unit": "min⁻¹"}]}, {"smiles": "CCOP(=O)(O)Cc1ccc([N+](=O)[O-])cc1", "note": "[9.8]", "values": [{"measurement": "IC50", "setting": "[14]", "value": 30, "unit": "nM"}]}, {"smiles": "O=C(Nc1cc(C(=O)O)cc(C(=O)O)c1)Oc1ccc([N+](=O)[O-])cc1", "note": "[9.9, 4-nitrophenyl N-(3,5-dicarboxyphenyl)carbamate]", "values": [{"measurement": "Km", "setting": "[5]", "value": 120, "unit": "µM"}, {"measurement": "kcat", "setting": "[5]", "value": 18, "unit": "min⁻¹"}, {"measurement": "kcat/Km", "setting": "[5]", "value": "0.15 E6"}, {"measurement": "kcat/kun", "setting": "[5]", "value": 300}]}, {"smiles": "O=C(Nc1cc(C(=O)O)cc(C(=O)O)c1)Oc1ccc(Br)cc1", "note": "[9.12, 4-bromophenyl N-(3,5-dicarboxyphenyl)carbamate]", "values": [{"measurement": "Km", "setting": "[5]", "value": 80, "unit": "µM"}, {"measurement": "kcat", "setting": "[5]", "value": 6, "unit": "min⁻¹"}, {"measurement": "kcat/Km", "setting": "[5]", "value": "0.075 E6"}, {"measurement": "kcat/kun", "setting": "[5]", "value": "1 E5"}]}, {"smiles": "O=C(Nc1cc(C(=O)O)cc(C(=O)O)c1)Oc1ccc(F)cc1", "note": "[9.13, 4-Fluorophenyl N-[(3,5-dicarboxy)phenyl]carbamate]", "values": [{"measurement": "Vmax", "setting": "[5]", "value": 1.1, "unit": "µM/min"}, {"measurement": "Km", "setting": "[5]", "value": 41, "unit": "µM"}, {"measurement": "kcat", "setting": "[5]", "value": 7.2, "unit": "min⁻¹"}, {"measurement": "kcat/Km", "setting": "[5]", "value": "0.17 E6"}, {"measurement": "kcat/kun", "setting": "[5]", "value": "4 E5"}]}, {"smiles": "COc1ccc(OC(=O)Nc2cc(C(=O)O)cc(C(=O)O)c2)cc1", "note": "[9.14, 4-methoxyphenyl N-(3,5-dicarboxyphenyl)carbamate]", "values": [{"measurement": "Km", "setting": "[5]", "value": 58, "unit": "µM"}, {"measurement": "kcat", "setting": "[5]", "value": 4.9, "unit": "min⁻¹"}, {"measurement": "kcat/Km", "setting": "[5]", "value": "0.08 E6"}, {"measurement": "kcat/kun", "setting": "[5]", "value": "1.2 E6"}]}, {"smiles": "CC(=O)c1ccc(OC(=O)Cc2ccccc2)cc1", "note": "[CH3 CO]", "values": [{"measurement": "Km", "setting": "[15]", "value": "~3000", "unit": "µM"}, {"measurement": "kcat", "setting": "[15]", "value": "ca. 0.87 s^-1"}, {"measurement": "kcat/Km", "setting": "[15]", "value": "ca. 0.282"}]}, {"smiles": "O=Cc1ccc(OC(=O)Cc2ccccc2)cc1", "note": "[CHO]", "values": [{"measurement": "Km", "setting": "[15]", "value": 250, "unit": "µM"}, {"measurement": "kcat", "setting": "[15]", "value": "1.0 ± 0.1", "unit": "s⁻¹"}, {"measurement": "kcat/Km", "setting": "[15]", "value": 4.1}, {"measurement": "Kd", "setting": "[15]", "value": "90 ± 10", "unit": "µM"}]}, {"smiles": "O=C(Cc1ccccc1)Oc1ccc(Cl)cc1", "note": "[Cl]", "values": [{"measurement": "Km", "setting": "[15]", "value": 720, "unit": "µM"}, {"measurement": "kcat", "setting": "[15]", "value": "1.7 ± 0.2", "unit": "s⁻¹"}, {"measurement": "kcat/Km", "setting": "[15]", "value": 0.049}, {"measurement": "Kd", "setting": "[15]", "value": "180 ± 40", "unit": "µM"}]}, {"smiles": "Cc1ccc(OC(=O)Cc2ccccc2)cc1", "note": "[Me]", "values": [{"measurement": "Km", "setting": "[15]", "value": "~3000", "unit": "µM"}, {"measurement": "kcat", "setting": "[15]", "value": "0.15 ± 0.03", "unit": "s⁻¹"}, {"measurement": "kcat/Km", "setting": "[15]", "value": 1.01}]}, {"smiles": "O=C(Cc1ccccc1)Oc1ccc([N+](=O)[O-])cc1", "note": "[NO2]", "values": [{"measurement": "Km", "setting": "[15]", "value": 53, "unit": "µM"}, {"measurement": "kcat", "setting": "[15]", "value": "ca. 25 s^-1"}, {"measurement": "kcat/Km", "setting": "[15]", "value": "ca. 470"}, {"measurement": "Kd", "setting": "[15]", "value": 1, "unit": "µM"}]}, {"smiles": "C=C(O[C@@H]1C=C(C(=O)O)C=C[C@H]1O)C(=O)O", "note": "[chorismate, (-)-Chorismic acid]", "values": [{"measurement": "Km", "setting": "[16]", "value": 15, "unit": "µM"}]}]}
